In US20260337212A1, “IP4-4,6 SUBSTITUTED DERIVATIVE COMPOUNDS FOR USE IN THE TREATMENT, INHIBITION OF PROGRESSION, AND PREVENTION OF ECTOPIC CALCIFICATION” (SANIFIT THERAPEUTICS, S.A., priority 2022, published 2026):
Structures can show the parent of a compound that is named as a salt.

Test: In vitro inhibition of calcium phosphate crystallization in human plasma (spectrophotometric)
Format: biochemical
Conditions: 0-100 μM, 1.5 mM phosphate, 12.5 mM calcium, pH 7.4, 30 min, rt, read-out: Relative Potency (EC50, inhibition of calcium phosphate crystallization)
Experimental: The in vitro efficacy of the IP4-4,6 substituted derivatives (e.g., Compounds 1 to 53) of the invention on the inhibition of calcium phosphate crystallization in human plasma samples was evaluated according to a spectrophotometric assay previously described in the art (Ferrer M, et al., Sci Rep 2017; 7:6858, doi:10.1038/s41598-017-07203-x).
A 96-well plate was employed. Plasma was spiked (1 volume of the IP4-4,6 substituted derivatives of the invention per 19 volumes of plasma) with increasing concentrations of the derivatives in the range of 0-100 μM. Plasma was then centrifuged at 10,000 g at rt and subsequently mixed with a mixture of 5 mM hydrogen phosphate and 41.67 mM calcium to attain final concentrations of 1.5 mM phosphate and 12.5 mM calcium, respectively. All reagent solutions were filtered, and pH adjusted to 7.4.
Crystallization of calcium phosphate was monitored spectrophotometrically for 30 min at rt by measuring the increments in absorbance at 550 nm using the Biotek Powerwave XS Microplate spectrophotometer (BioTek Instruments, Inc., Winooski, VT, US). The plate was incubated at rt in an orbital shaker and absorbance measured every 3 min.
Plasma crystallization was assessed based on slope measurement in the linear range between 6 and 24 min from plots of increase in absorbance versus logarithm of time. The efficacy of different myo-inositol phosphates derivatives in preventing in vitro formation of calcium phosphate crystals was assessed in human plasma samples using the slopes obtained between 6- and 24-min. Inhibition of crystallization was measured by comparing the slopes of the control sample (blank plasma) with those of samples containing the inhibitor as shown below: […]
`COCc1cn(CCCCOC2C(OP(=O)(O)O)C(OCCCCn3cc(COC)nn3)C(OP(=O)(O)O)C(OP(=O)(O)O)C2OP(=O)(O)O)nn1` (stereo not drawn) [Compound 37, 4,6-O-bis(4-(4-(methoxymethyl)-1H-1,2,3-triazol-1-yl)butyl)-myo-inositol-1,2,3,5-tetrakis(phosphate) octasodium salt] showed an EC50 of 5 to 10 µM.
In the case of `COCc1cn(CCCCCCOC2C(OP(=O)(O)O)C(OCCCCCCn3cc(C(=O)O)nn3)C(OP(=O)(O)O)C(OP(=O)(O)O)C2OP(=O)(O)O)nn1` (stereo not drawn) [Compound 41, 4-O-(6-(4-carboxy-1H-1,2,3-triazol-1-yl)hexyl)-6-O-(6-(4-(methoxymethyl)-1H-1,2,3-triazol-1-yl)hexyl)-myo-inositol-1,2,3,5-tetrakis(phosphate) nonasodium salt], the EC50 is reported as no more than 5 µM.
Work on `COc1ccc(CCCOC2C(OP(=O)(O)O)C(OCCCc3ccc(OC)cc3)C(OP(=O)(O)O)C(OP(=O)(O)O)C2OP(=O)(O)O)cc1` (stereo not drawn) [Compound 43, 4,6-O-bis(3-(4-methoxyphenyl)propyl)-myo-inositol-1,2,3,5-tetrakis(phosphate) octasodium salt] yielded an EC50 of 5 to 10 µM.
In the case of `O=P(O)(O)OC1C(OCCCc2cccc(C(F)(F)F)c2)C(OP(=O)(O)O)C(OP(=O)(O)O)C(OP(=O)(O)O)C1OCCCc1cccc(C(F)(F)F)c1` (stereo not drawn) [Compound 44, 4,6-O-bis(3-(3-(trifluoromethyl)phenyl)propyl)-myo-inositol-1,2,3,5-tetrakis(phosphate) octasodium salt], the EC50 is reported as greater than 10 µM.
In the case of `O=C(NCCCOC1C(OP(=O)(O)O)C(OCCCNC(=O)NC2CCCC2)C(OP(=O)(O)O)C(OP(=O)(O)O)C1OP(=O)(O)O)NC1CCCC1` (stereo not drawn) [Compound 47, 4,6-O-bis(3-(3-cyclopentylureido)propyl)-myo-inositol-1,2,3,5-tetrakis(phosphate) octasodium salt], the EC50 is reported as no more than 5 µM.
With `O=C(NCCCCCOC1C(OP(=O)(O)O)C(OCCCCCNC(=O)c2ccccc2)C(OP(=O)(O)O)C(OP(=O)(O)O)C1OP(=O)(O)O)c1ccccc1` (stereo not drawn) [Compound 48, 4,6-O-bis(5-benzamidopentyl)-myo-inositol-1,2,3,5-tetrakis(phosphate) octasodium salt] the EC50 was greater than 10 µM.
`O=C(NCCCCCOC1C(OP(=O)(O)O)C(OCCCCCNC(=O)c2cccs2)C(OP(=O)(O)O)C(OP(=O)(O)O)C1OP(=O)(O)O)c1cccs1` (stereo not drawn) [Compound 49, 4,6-O-bis(5-(thiophene-2-carboxamido)pentyl)-myo-inositol-1,2,3,5-tetrakis(phosphate) octasodium salt] showed an EC50 of 5 to 10 µM.
For `CCCCCOC1C(OP(O)(O)=S)C(OCCCCC)C(OP(O)(O)=S)C(OP(O)(O)=S)C1OP(O)(O)=S` (stereo not drawn) [Compound 50, 4,6-O-dipentyl-myo-inositol-1,2,3,5-tetrakis(thiophosphate) octasodium salt], the EC50 was greater than 10 µM.
With `COCCCCCOC1C(OP(O)(O)=S)C(OCCCCCOC)C(OP(O)(O)=S)C(OP(O)(O)=S)C1OP(O)(O)=S` (stereo not drawn) [Compound 51, 4,6-O-bis(5-Methoxypentyl)-myo-inositol-1,2,3,5-tetrakis(thiophosphate) octasodium salt] the EC50 was greater than 10 µM.
`O=C(O)CCCOC1C(OP(=O)(O)O)C(OCCCC(=O)O)C(OP(=O)(O)O)C(OP(=O)(O)O)C1OP(=O)(O)O` (stereo not drawn) [Compound 52, 4,6-O-bis(3-carboxypropyl)-myo-inositol-1,2,3,5-tetrakis(phosphate) decasodium salt] showed an EC50 of no more than 5 µM.
For `C#CCOC1C(OP(=O)(O)O)C(OCC#C)C(OP(=O)(O)O)C(OP(=O)(O)O)C1OP(=O)(O)O` (stereo not drawn) [Compound 53, 4,6-O-Dipropargyl-myo-inositol-1,2,3,5-tetrakis(phosphate) octasodium salt], the EC50 was no more than 5 µM.

Test: Rat calcinosis cutis/calciphylaxis model (vitamin D3 and FeCl3): skin plaque calcification
Format: in vivo, Sprague Dawley rat
Conditions: 60 mg/kg s.c. daily D1-D8; HC (vitamin D3 50,000 IU/kg), FeCl3 0.5 mg/kg
Experimental: The dose-response efficacy of IP4-4,6 derivatives in the prevention and treatment of calcinosis cutis and calciphylaxis (CUA) induced by vitamin D3 and FeCl3 in a rat model was used. The model evaluated the effects of Compound 27 and IP6 on the formation of calcified skin plaques in rats for a duration of 8 days. Animals were sensitized at low concentration (LC, 35,000 IU/kg) and high concentration (HC, 50,000 IU/kg) doses of vitamin D3. A FeCl3 solution (0.5 mg/kg) was used as challenger to induce the formation of skin plaques. All animals were weighed every day before treatment.
Eighty-six male Sprague Dawley (SD) rats (Envigo Corp., Huntingdon, GB) weighing approximately 250-300 g were used. The animals were fed with a standard LASQCdiet® Rod14-H diet (LASvendi, Soest, DE). The animals were divided in 8 groups, 6 to 12 animals per group, as follows:
The following solutions were prepared: (a) 17,500 IU/mL (LC) and 25,000 IU/mL (HC) vitamin D3 (cholecalciferol, Duphafral D3 1000; Zoetis Inc., Parsippany, NJ, US), (b) 0.3 mg/mL FeCl3 (FeCl3·6H2O, 99%, Scharlab S. L., Barcelona, E S), (c) 30 mg/mL IP6 (660 g/mol phytic acid, pH 6.5-7.7), and (d) 15, 30, and 50 mg/mL Compound 27 (754.45 g/mol free acid, pH 6.5-7.7). All solutions were prepared in a 0.9% (w/v) physiological saline NaCl medium. An application volume of 2 mL/kg was employed.
Group 1—Control (sham), 6 animals. Animals in group 1 were administered subcutaneously physiological saline (0.9% (w/v) NaCl solution daily from D1 to D3 in the interscapular space, and with one saline 0.9% injection at each of the two ventral sites in the thorax on D4. Animals in group 1 were not administered Vit D or FeCl3 solutions.
(§1) Group 2—Physiological saline solution low concentration (Vehicle LC): Vit D 35,000 IU/kg, 0.5 mg/kg FeCl3 solution, 10 animals. Vit D at dose 35,000 IU/kg was administered subcutaneously x 3 consecutive days (D1, D2, D3), and one 0.5 mg/kg FeCl3 injection at each of the two ventral sites in the thorax on D4. This group received a daily saline 0.9% s.c. treatment (D1 to D8).
(§2) Group 3—Compound 27 60 mg/kg LC: Vit D 35,000 IU/kg, 0.5 mg/kg FeCl3, 10 animals. Vit D at dose 35,000 IU/kg was administered subcutaneously x 3 consecutive days (D1, D2, D3), and one 0.5 mg/kg FeCl3 injection at each of the two ventral sites in the thorax on D4. This group received a daily Compound 27 s.c. treatment at 60 mg/kg dose (D1 to D8).
as §1, with “4—Physiological” for “2—Physiological”, “high” for “low”, “HC):” for “LC):”, “50,000” for “35,000”, “FeCl3, 12” for “FeCl3 solution, 10”
as §2, with “5—IP6” for “3—Compound 27”, “HC,” for “LC:”, “50,000” for “35,000”, “12” for “10”, “IP6” for “Compound 27”
as §2, with “6—Compound” for “3—Compound”, “30” for “60”, “HC,” for “LC:”, “50,000” for “35,000”, “12” for “10”
as §2, with “7—Compound” for “3—Compound”, “[…],” for “LC:”, “50,000” for “35,000”, “12” for “10”
Group 8—Compound 27 100 mg/kg HC, Vit D 50,000 IU/kg, 0.5 mg/kg FeCl3, 12 animals. […]
With `O=P(O)(O)O[C@H]1[C@H](OP(=O)(O)O)[C@@H](OP(=O)(O)O)[C@H](OP(=O)(O)O)[C@@H](OP(=O)(O)O)[C@H]1OP(=O)(O)O` [IP6, phytic acid, reference compound] the “Skin plaque % inhibition of calcification” value was 58.8 ± 14.4 %.
